The subject of series [1] is multiple myeloma cell line H929 xenograft. The following applies: for growth inhibition rate (GIR (%)) versus untreated group (Vehicle): Day 17, NK cells 1×10^7 cells i.v. ×3, Velcade and Darzalex 0.5 mg/kg i.p. ×5. How it is done:
In a xenograft animal model using NOD.Cg-Prkdcscid Il2rgtm1Wj1/SzJ (NSG) mouse (Jackson Laboratory, Jax #00557 strain), the anticancer efficacy of BCMA-CAR NK cells expressing BCMA-CAR1 was evaluated.
After subcutaneous implantation of multiple myeloma cell line H929 with high BCMA expression, when the tumor size reached 150 mm^3 (10 days post implantation), 5 mice were randomly assigned to each group, and once every 5 days, BCMA-CAR NK cells or control NK cells (NKvec) were administered at a concentration of 1×10^7 cells via intravenous tail vein injection (i.v.) in a total of 3 administrations. Here, a proteasome inhibitor, Velcade® (ingredient name: Bortezomib) and an antibody medication, Darzalex® (ingredient name: Daratumumab) being used as treatment medications for multiple myeloma patients were used as control drugs, and Velcade® (Vel) and Darzalex® (Dara) were each administered at a concentration of 0.5 mg/kg via intraperitoneal (i.p.) route, once every 3-4 days, in a total of 5 administrations.

The target in series [2] is BCMA expressed on multiple myeloma cells (H929, MM1.R, OPM-2) (UniProt Q02223). Put plainly: cell-based or functional assay.

Results on five molecules are retold here after US20230114854A1, “CHIMERIC ANTIGEN RECEPTOR TARGETING B-CELL MATURATION ANTIGEN AND USE THEREOF” (CELLGENTEK CO., LTD., priority 2020, published 2023).

Where “and” joins values, the source holds several entries; their conditions need not be identical. Equal entries are not always repeated.

UniProt Q02223, sequence (Q02223 whole entry): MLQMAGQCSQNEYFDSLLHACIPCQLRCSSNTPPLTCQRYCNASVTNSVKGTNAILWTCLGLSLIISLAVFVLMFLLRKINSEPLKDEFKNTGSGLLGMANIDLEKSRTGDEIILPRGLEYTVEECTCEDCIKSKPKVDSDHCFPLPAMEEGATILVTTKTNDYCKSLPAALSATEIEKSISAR

On to `CC(C)C[C@H](NC(=O)[C@H](Cc1ccccc1)NC(=O)c1cnccn1)B(O)O` [Velcade, Bortezomib], for which the “growth inhibition rate (GIR (%)) versus untreated group (Vehicle)” value in series [1] is 39%. Besides, the “toxicity (body weight)” value in series [1] (mouse, in vivo) is given as “toxicity i.e., a decrease in body weight”.

Turning to Daratumumab [Darzalex], the “growth inhibition rate (GIR (%)) versus untreated group (Vehicle)” value in series [1] turned out to be 23%.

B1: BCMA-CAR2 (protein)
chain: EVQLLESGGGLVQPGGSLRLSCAASGFTFSNYGVHWVRQAPGKGLEWVSYISYSGGTYYNPSLKSRFTISRDNSKNTLYLQMNSLRAEDTAVYYCARDSDDFGFDYWGQGTLVTVSSGSTSGSGKPSGEGSTKGQSVLTQPPSASGTPGQRVTISCQGDSLRSYYVNWYQQLPGTAPKLLIYDHSKRPTGVPDRFSGSKSGTSASLAISGLRSEDEADYYCQSYDSSTVVFGGGTKLTVLGALSNSIMYFSHFVPVFLPAKPTTTPAPRPPTPAPTIASQPLSLRPEASRPAAGGAVHTRGLDKPFWVLVVVGGVLACYSLLVTVAFIIFWVRSKRSRLLHSDYMNMTPRRPGPTRKHYQPYAPPRDFAAYRSGGGGSKRGRKKLLYIFKQPFMRPVQTTQEEDGCSCRFPEEEEGGCELGGGGSRVKFSRSADAPAYQQGQNQLYNELNLGRREEYDVLDKRRGRDPEMGGKPRRKNPQEGLYNELQKDKMAEAYSEIGMKGERRRGKGHDGLYQGLSTATKDTYDALHMQALPPR
Regarding B1, the cytolytic activity toward multiple myeloma cells (H929, MM1.R, OPM-2), versus control NK cells (NKvec) in series [2] is 3 to 4 times and > 4 times.

B2: BCMA-CAR3 (protein)
chain: EVQLLESGGGLVQPGGSLRLSCAASGFTFSDYGLSWVRQAPGKGLEWVSLIDSSGSSTFYADSVKGRFTISRDNSKNTLYLQMNSLRAEDTAVYYCAKEHGLFDSWGQGTLVTVSSGSTSGSGKPSGEGSTKGEIVLTQSPGTLSLSPGERATLSCKASQDIDDDINWYQQKPGQAPRLLIYDASLRATGIPDRFSGSGSGTDFTLTISRLEPEDFAVYYCQQSLRTPITFGQGTKLEIKRALSNSIMYFSHFVPVFLPAKPTTTPAPRPPTPAPTIASQPLSLRPEASRPAAGGAVHTRGLDKPFWVLVVVGGVLACYSLLVTVAFIIFWVRSKRSRLLHSDYMNMTPRRPGPTRKHYQPYAPPRDFAAYRSGGGGSKRGRKKLLYIFKQPFMRPVQTTQEEDGCSCRFPEEEEGGCELGGGGSRVKFSRSADAPAYQQGQNQLYNELNLGRREEYDVLDKRRGRDPEMGGKPRRKNPQEGLYNELQKDKMAEAYSEIGMKGERRRGKGHDGLYQGLSTATKDTYDALHMQALPPR
Regarding B2, in series [2], the cytolytic activity toward multiple myeloma cells (H929, MM1.R, OPM-2), versus control NK cells (NKvec) is 3 to 4 times and > 4 times.

B3: BCMA-CAR4 (protein)
chain: EVQLLESGGGLVQPGGSLRLSCAASGFTFSGHYWSWVRQAPGKGLEWVSTVSGSGGDTFYADSVKGRFTISRDNSKNTLYLQMNSLRAEDTAVYYCARGHSVMDVWGQGTLVTVSSGSTSGSGKPSGEGSTKGEIVLTQSPGTLSLSPGERATLSCRASQGIDSYVAWYQQKPGQAPRLLIYDASLRATGIPDRFSGSGSGTDFTLTISRLEPEDFAVYYCQQYNSWPITFGQGTKLEIKRALSNSIMYFSHFVPVFLPAKPTTTPAPRPPTPAPTIASQPLSLRPEASRPAAGGAVHTRGLDKPFWVLVVVGGVLACYSLLVTVAFIIFWVRSKRSRLLHSDYMNMTPRRPGPTRKHYQPYAPPRDFAAYRSGGGGSKRGRKKLLYIFKQPFMRPVQTTQEEDGCSCRFPEEEEGGCELGGGGSRVKFSRSADAPAYQQGQNQLYNELNLGRREEYDVLDKRRGRDPEMGGKPRRKNPQEGLYNELQKDKMAEAYSEIGMKGERRRGKGHDGLYQGLSTATKDTYDALHMQALPPR
As for B3, the cytolytic activity toward multiple myeloma cells (H929, MM1.R, OPM-2), versus control NK cells (NKvec) in series [2] was 3 to 4 times and > 4 times.
